In patent publication US20250268474A1, “Systems and Methods for Detecting Fibrosis” (3HELIX, INC., priority 2021, published 2025):
Where no end group is shown, it is not given here. [ ]: non-standard residue; d: D form. Pro(cis-4-F) = O=C(O)[C@@H]1C[C@H](F)CN1; Hyp = O=C(O)[C@@H]1C[C@@H](O)CN1

Tested on: damaged/denatured collagen
Assay: LCHP in vivo imaging (fundus / ICG angiography) in CNV mice
Details: spontaneous CNV (JR5558), FIG. 6A; 1 nmol per animal, tail vein

“sulfo-Cy7.5-GGG-OfGGOfGfGfOfOGOfGOOfGGOOff ({sulfo‑Cy7.5}-GGG[Hyp][Pro(cis-4-F)]GG[Hyp][Pro(cis-4-F)]G[Pro(cis-4-F)]G[Pro(cis-4-F)][Hyp][Pro(cis-4-F)][Hyp]G[Hyp][Pro(cis-4-F)]G[Hyp][Hyp][Pro(cis-4-F)]GG[Hyp][Hyp][Pro(cis-4-F)][Pro(cis-4-F)]; not fully specified; printed as sulfo-Cy7.5-GGG-OfGGOfGfGfOfOGOfGOOfGGOOff) [scrambled sCy7.5-CHP]” was tested, and the “signal in IR, FA and ICGA imaging” value was “no significant signal was detected”.
